Where only a bound is given, the exact number is not on record here.

Common to all, as to type: in vitro ADME
Data set [1] can be described thus: Hepatocyte Stability Assay, human hepatocytes. As to conditions: cryopreserved human hepatocytes, read-out: Human hepatocyte clearance. On the procedure:
(§1) Example 32: Hepatocyte Stability Assay
(§2) Preparation of working solutions: 10 mM stock solutions of test compound and positive control were prepared in DMSO. In separate conical tubes, the 10 mM solution of test compound and the positive control were diluted to 100 μM by combining 198 μL of 50% acetonitrile/50% water and 2 μL of 10 mM stock.
Preparation of Hepatocytes: Incubation medium (William's E Medium supplemented with GlutaMAX) and hepatocyte thawing medium were placed in a 37° C. water bath and allowed warming for at least 15 minutes prior to use. A vial of cryopreserved hepatocytes was transferred from storage, ensuring that vials remained at cryogenic temperatures until thawing process ensued. Cells were thawed by placing the vial in a 37° C. water bath and gently shaking the vials for 2 minutes. After thawing was completed, vial was sprayed with 70% ethanol and transferred to a biosafety cabinet. Wide-bore pipette tip were used to transfer hepatocytes into 50 mL conical tube containing thawing medium. The 50 mL conical tube were placed into a centrifuge and spun at 100 g for 10 minutes. Upon completion of spin, thawing medium was aspirated and resuspended hepatocytes in enough incubation medium to yield ˜1.5×10^6 cells/mL. Using an AO/PI Staining, cells were counted and the viable cell density was determined. Cells with poor viability (<75% viability) were determined to be not acceptable for use. Cells were diluted with incubation medium to a working cell density of 0.5×10^6 viable cells/mL.
Procedure for Stability Determination: 198 μL of hepatocytes were pipetted into each wells of a 96-well non-coated plate. The plate was placed in the incubator to allow the hepatocytes to warm for 10 minutes. 2 μL of the 100 μM test compound or positive control solutions were pipetted into respective wells of the 96-well non-coated plate to start the reaction. The plate was returned to the incubator for the designed time points. Well contents was transferred in 25 μL aliquots at time points of 0, 15, 30, 60, 90 and 120 minutes. The aliquots were then mixed with 6 volumes (150 μL) of acetonitrile containing internal standard, IS (100 nM alprazolam, 200 nM caffeine and 100 nM tolbutamide) to terminate the reaction. The mixture was vortex for 5 minutes. Samples were centrifuged for 45 minutes at 3,220 g. An aliquot of 100 μL of the supernatant was diluted by 100 μL ultra-pure water, and the mixture was used for LC/MS/MS analysis. All incubations were performed in duplicate.
(§3) Data Analysis: All calculations were carried out using Microsoft Excel. Peak areas were determined from extracted ion chromatograms. In vitro half-life (t1/2) of parent compound was determined by regression analysis of the percent parent disappearance vs. time curve.
The in vitro half-life (in vitro t1/2) was determined from the slope value:
Conversion of the in vitro t1/2 (in min) into the in vitro intrinsic clearance (in vitro CLint, in μL/min/1×10^6 cells) was done using the following equation (mean of duplicate determinations): • in vitro CLint=kV/N • V=incubation volume (0.2 mL); • N=number of hepatocytes per well (0.1×10^6 cells).
“+++” indicates a CLint value less than 20 mL/min/Kg, “++” indicates a CLint between 20 and 50 mL/min/Kg, and “+” indicates an CLint above 50 mL/min/Kg.

The nature of data set [2]: Hepatocyte Stability Assay, rat hepatocytes. As to conditions: cryopreserved rat hepatocytes, read-out: Rat hepatocyte clearance. On the procedure: as §1, §2
(§4) Preparation of Hepatocytes: Incubation medium (William's E Medium supplemented with GlutaMAX) and hepatocyte thawing medium were placed in a 37° C. water bath and allowed warming for at least 15 minutes prior to use. A vial of cryopreserved hepatocytes was transferred from storage, ensuring that vials remained at cryogenic temperatures until thawing process ensued. Cells were thawed by placing the vial in a 37° C. water bath and gently shaking the vials for 2 minutes. […] Using an AO/PI Staining, cells were counted and the viable cell density was determined. Cells with poor viability (<75% viability) were determined to be not acceptable for use. […]
as §3
(§5) The in vitro half-life (in vitro t1/2) was determined from the slope value: […]

The nature of data set [3]: Hepatocyte Stability Assay, mouse hepatocytes. To be noted: cryopreserved mouse hepatocytes, read-out: Mouse hepatocyte clearance. On the procedure:
as §1, §2, §4, §3, §5

`Cc1ccccc1-c1ccc2nc(NC(=O)c3ccnn3C)sc2n1` [Product 15, 1-Methyl-N-(5-(o-tolyl)thiazolo[5,4-b]pyridin-2-yl)-1H-pyrazole-5-carboxamide]: the results for the CLint scaled at 1 µM in data set [1] and in data set [2] were less than 20 mL/min/kg and more than 50 mL/min/kg, respectively.

Take `COc1ccccc1-c1ccc2nc(NC(=O)c3ccccn3)sc2n1` [Product 12, N-(5-(2-methoxyphenyl)thiazolo[5,4-b]pyridin-2-yl)picolinamide]: the CLint scaled at 1 µM in data set [1] lay within 20 to 50 mL/min/kg.

Consider `COc1ccccc1-c1ccc2nc(NC(=O)c3ccnn3C)sc2n1` [Product 25, N-(5-(2-methoxyphenyl)thiazolo[5,4-b]pyridin-2-yl)-1-methyl-1H-pyrazole-5-carboxamide], for which the CLint scaled at 1 µM is more than 50 mL/min/kg in data set [3], less than 20 mL/min/kg in data set [1] and more than 50 mL/min/kg in data set [2].

Take `Cc1ccccc1-c1ccc2nc(NC(=O)c3ccccn3)sc2n1` [Product 8, N-(5-(o-tolyl)thiazolo[5,4-b]pyridin-2-yl)picolinamide]: the results for the CLint scaled at 1 µM in data set [3] and in data set [1] were more than 50 mL/min/kg and 20 to 50 mL/min/kg, respectively.

Consider `CN(C)c1ccccc1-c1ccc2nc(NC(=O)c3ccnn3C)sc2n1` [Product 18, N-(5-(2-(dimethylamino)phenyl)thiazolo[5,4-b]pyridin-2-yl)-1-methyl-1H-pyrazole-5-carboxamide], for which, in data set [1], the CLint scaled at 1 µM is 20 to 50 mL/min/kg.

`Cn1ncnc1C(=O)Nc1cnc2cc(-c3cc(F)ccc3C(F)F)[nH]c2c1` [Product 47]: in data set [1], the CLint scaled at 1 µM is less than 20 mL/min/kg.

Consider `Cc1ccccc1-c1ccc2nc(NC(=O)N3CCOCC3)sc2n1` [Product 39, N-(5-(o-tolyl)thiazolo[5,4-b]pyridin-2-yl)morpholine-4-carboxamide], for which the CLint scaled at 1 µM in data set [1] was less than 20 mL/min/kg.

These data come from patent US20230234967A1, “Fused Azole Heterocycles as AHR Antagonists” (Senda Biosciences, Inc., priority 2021, published 2023).
